# Measurements published in the NIST ThermoML archive (doi:10.1016/j.jct.2004.12.006).
# ± gives the expanded uncertainty stated by the source.
# How the values were obtained:
# [1] = Molar enthalpy of transition or fusion; conditions: Crystal; DSC
# [2] = Crystal; DTA
compound,measurement,setting,value
Cl.Cl.Fc1ccc([C@@H]2CCNC[C@H]2COc2ccc3c(c2)OCO3)cc1.Fc1ccc([C@@H]2CCNC[C@H]2COc2ccc3c(c2)OCO3)cc1.O [paroxetine hydrochloride hemihydrate],Molar enthalpy of transition or fusion,[1],34 ± 0.7 kJ/mol
same,Normal melting temperature,[2],126.7 ± 0.7 °C
